Laboratory results: patent US11492341B2, “ACLY inhibitors and uses thereof” (Nimbus Artemis, Inc., priority 2018, dated 2022)
pIC50: −log10 of the molar value.

Columns and labels:
ACC1 = ACC1 isolated from rat, mouse, monkey and human; cited from earlier work
ACC2 = ACC2 isolated from rat, mouse, monkey and human; cited from earlier work
ACL = ACL (Homo sapiens (Human), UniProt P53396); test: ADP-Glo Assay; type: biochemical; conditions: 3 nM ACL, 15 μM ATP, 3 μM CoA, 300 μM Citrate
Procedure: Example 28. ADP-Glo Assay
Compounds of the present invention were evaluated in an ADP-GLO assay as follows: a) Dilute cpd 1:3 in succession in DMSO by hand for each cpds for 12 pts b) Add 0.1 μL diluted cpd solution to assay plate, each dose with 2 replicates c) Centrifuge 1000 RPM for 1 min d) Add 5 μL ACL working solution to 384-well assay plate, centrifuge 1000 RPM for 1 min e) Incubate at 25° C. for 15 min f) Add 5 μL substrate working solution to initiate reaction g) Final ACL reaction concentrations: 3 nM ACL, 15 μM ATP, 3 μM CoA, 300 μM Citrate, 0.01% Brij35, 4 mM DTT, 1% DMSO; h) Reference final conc: 30 uM starting Conc, 3× dilution, 11+0 points. Test cpd conc: 30/100 uM starting Conc, 3× dilution, 11+0 points. i) Incubate at 25° C. for 60 min j) Add 10 μL ADP Glo reagent, centrifuge 1000 RPM for 1 min k) Incubate at 25° C. for 40 min l) Add 20 μL kinase detection reagent, centrifuge 1000 RPM for 1 min m) Incubate at 25° C. for 40 min n) Read on Envision for US LUM as RLU

HepG2 cells [1] = test: ACLY HepG2 14C-pyruvate incorporation assay with serum (IC50 Fatty Acid); type: cell-based; conditions: Homo sapiens, Table 8, with serum, read-out: ACLY HepG2 ^14C- Pyruvate Assay with serum IC50 Fatty Acid 96 well (IC50)
Procedure: (§1) Example 30. ACLY HepG2 ^14C-Pyruvate Incorporation Assay with Serum
(§2) Compounds of the invention were also assayed in an ACLY HepG2 ^14C-pyruvate incorporation assay with serum (IC50 Cholesterol) and (IC50 Fatty Acid). The protocol of the assay (below) was followed:
(§3) HepG2 cells were seed at 5 k cells/well in 96-well cell culture plate in DMEM with 10% FBS (heat inactivated and 25 mM glucose). After 48 hours, the medium was replaced with fresh medium containing 10% FBS (heat inactivated and 25 mM glucose).
(§4) After 18 hours, the medium was replaced with 200 uL of DMEM (5.5 mM glucose without pyruvate) with or without FBS containing compounds (30, 10, 3.33, 1.11, 0.370, 0.123, 0.041 uM). DMSO concentration was 0.5%. The cells were incubated with compounds at 37° C. for 1 hour.
(§5) 2 μci of [14C]-pyruvate was added per well and the cell samples were incubated at 37° C., 5% CO2 for 5 hours.
(§6) The medium was removed and placed into a 96-well polypropylene deep well plate. 200 uL of 0.1N NaOH was added to each well at room temperature to dissolve cell monolayer. The remaining cell suspension was pooled with medium in a 96-well polypropylene deep well plate. 68 uL of 50% KOH was added to the plate containing medium and cell suspensions and capped.
(§7) Cells were incubated at 70° C. for 1 hour, and then cooled to room temperature.
400 ul of the remaining 500 ul petroleum ether layer was removed and discard. 1 mL petroleum ether was added to the well, shaken vigorously, and centrifuged at 1000 rpm for 5 minutes. All 1100 ul of the petroleum ether layer removed and discarded. The aqueous phase was then acidified with 500 uL of concentrated HCl, checking pH of one or two extracts to make sure pH below 1 (critical, check by PH paper).
8. Fatty acids extraction
1 mL of petroleum ether was added per well to extract saponifyable lipids (extracted as fatty acids originating from saponified lipids such as triglycerides and phospholipids), shaken vigorously, centrifuged at 1000 rpm for 5 min, and 500 uL of the petroleum ether layer was then transferred to a new 96-well deep well plate. Repeat petroleum ether extraction step one more time and pool the petroleum ether extracts. Evaporate to dryness with SpeedVac overnight. 200 μL of scintillation cocktail was added and shaken and transferred to a 96 well optiplate and counted using the Microbeta Liquid Scintillation Counter.

HepG2 cells [2] = test: ACLY HepG2 14C-pyruvate incorporation assay with serum (IC50 Cholesterol); type: cell-based; conditions: Homo sapiens, Table 7, with serum, IC50 Cholesterol per table title and b713 (column head prints Fatty Acid), read-out: ACLY HepG2 ^14C- Pyruvate Assay with serum IC50 Fatty Acid 96 well (IC50)
Procedure: as §1, §2, §3, §4, §5, §6, §7
6. Cholesterol Extraction
1 mL petroleum ether was added per well to extract non-saponifyable lipids (primarily sterols such as cholesterol), shaken vigorously, and centrifuged at 1000 rpm for 5 minutes. 500 μL of the petroleum ether layer was then transferred to a 96 well plate and 200 ul of H2O was added, shaken vigorously, and centrifuged at 1000 rpm for 5 minutes. The petroleum ether layer 500 ul was transferred to a new 96-well plate and evaporated to dryness with SpeedVac overnight. 200 μL of scintillation cocktail was then added and shaken and transferred to a 96 well optiplate and counted using the Microbeta Liquid Scintillation Counter.

ACL, sequence (P53396 whole entry, species assumed): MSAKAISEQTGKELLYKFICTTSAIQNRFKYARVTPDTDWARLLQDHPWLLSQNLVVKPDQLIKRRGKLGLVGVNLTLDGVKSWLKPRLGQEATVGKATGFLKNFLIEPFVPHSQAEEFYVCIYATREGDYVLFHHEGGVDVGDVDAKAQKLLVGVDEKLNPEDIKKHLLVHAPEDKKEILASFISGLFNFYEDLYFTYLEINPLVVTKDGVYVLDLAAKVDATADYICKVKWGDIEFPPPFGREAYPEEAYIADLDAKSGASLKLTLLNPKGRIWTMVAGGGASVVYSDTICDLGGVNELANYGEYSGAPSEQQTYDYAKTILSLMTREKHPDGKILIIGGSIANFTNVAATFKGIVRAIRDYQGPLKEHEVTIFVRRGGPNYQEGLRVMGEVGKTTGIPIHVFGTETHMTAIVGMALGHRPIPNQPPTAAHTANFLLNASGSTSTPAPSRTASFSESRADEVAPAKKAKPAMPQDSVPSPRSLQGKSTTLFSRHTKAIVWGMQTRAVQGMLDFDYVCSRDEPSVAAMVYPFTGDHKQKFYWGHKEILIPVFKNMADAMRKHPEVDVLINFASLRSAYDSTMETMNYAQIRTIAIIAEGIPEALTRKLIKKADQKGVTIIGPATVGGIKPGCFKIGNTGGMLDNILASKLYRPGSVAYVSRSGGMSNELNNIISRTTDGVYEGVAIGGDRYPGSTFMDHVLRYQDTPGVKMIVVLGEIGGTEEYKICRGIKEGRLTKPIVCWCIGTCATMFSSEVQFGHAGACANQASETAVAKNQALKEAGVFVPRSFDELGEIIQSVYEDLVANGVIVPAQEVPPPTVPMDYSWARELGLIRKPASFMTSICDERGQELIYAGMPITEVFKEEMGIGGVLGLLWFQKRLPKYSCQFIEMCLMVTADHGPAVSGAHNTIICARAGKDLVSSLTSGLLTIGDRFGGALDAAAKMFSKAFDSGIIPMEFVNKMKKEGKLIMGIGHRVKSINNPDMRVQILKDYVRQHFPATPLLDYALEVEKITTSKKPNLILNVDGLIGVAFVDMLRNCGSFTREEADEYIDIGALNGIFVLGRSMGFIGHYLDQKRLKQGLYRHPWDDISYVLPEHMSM

SMILES	pIC50 (ACL)	pIC50 (HepG2 cells [1])	pIC50 (HepG2 cells [2])	pIC50 (ACC1)	pIC50 (ACC2)
O=C(c1c2ccccc2cc2ccccc12)N1CCC(N2CCC[C@@H](C(=O)N3CCOCC3)C2)CC1 [CP-640186]	–	–	–	~7.22	~7.22
O=S(=O)(c1cc(Br)cc(Cl)c1O)n1c(-c2ccccc2)cc2cc(Cl)ccc21 [I-1, 4-bromo-2-chloro-6-((5-chloro-2-phenyl-1H-indol-1-yl)sulfonyl)phenol]	4.70 to 6.30	≥ 5.00	≥ 5.00	–	–
COc1ccc(-c2cc3cc(Cl)ccc3n2S(=O)(=O)c2cc(Br)cc(Cl)c2O)cn1 [I-28, 4-bromo-2-chloro-6-((5-chloro-2-(6-methoxypyridin-3-yl)-1H-indol-1-yl)sulfonyl)phenol]	4.70 to 6.30	≥ 5.00	≥ 5.00	–	–
Cc1cc2cc(Cl)ccc2n1S(=O)(=O)c1cc(Br)cc(Cl)c1O [I-30, 4-bromo-2-chloro-6-((5-chloro-2-methyl-1H-indol-1-yl)sulfonyl)phenol]	4.70 to 6.30	≥ 5.00	≥ 5.00	–	–
O=S(=O)(c1cc(Br)cc(Cl)c1O)n1c(-c2cncs2)cc2cc(Cl)ccc21 [I-33, 4-bromo-2-chloro-6-((5-chloro-2-(thiazol-5-yl)-1H-indol-1-yl)sulfonyl)phenol]	4.70 to 6.30	≥ 5.00	≥ 5.00	–	–
Cc1c(-c2ccccc2)n(S(=O)(=O)c2cc(Br)cc(Cl)c2O)c2ccc(Cl)cc12 [I-47]	4.70 to 6.30	≥ 5.00	≥ 5.00	–	–

Continued, in another order:

pIC50 (ACL)	pIC50 (HepG2 cells [1])	pIC50 (HepG2 cells [2])	SMILES	pIC50 (ACC1)	pIC50 (ACC2)
4.70 to 6.30	≥ 5.00	≥ 5.00	O=S(=O)(c1cc(Br)cc(Cl)c1O)n1c(-c2ccc(OC(F)(F)F)cc2)cc2cc(Cl)ccc21 [I-25, 4-bromo-2-chloro-6-((5-chloro-2-(4-(trifluoromethoxy)phenyl)-1H-indol-1-yl)sulfonyl)phenol]	–	–
4.70 to 6.30	≥ 5.00	≥ 5.00	COc1ccc(-c2cc3cc(Cl)ccc3n2S(=O)(=O)c2cc(Br)cc(Cl)c2O)cc1 [I-26, 4-bromo-2-chloro-6-((5-chloro-2-(4-methoxyphenyl)-1H-indol-1-yl)sulfonyl)phenol]	–	–
4.70 to 6.30	≥ 5.00	≥ 5.00	O=S(=O)(c1cc(Br)cc(Cl)c1O)n1c(-c2cccc(F)c2)cc2cc(Cl)ccc21 [I-40]	–	–
4.70 to 6.30	≥ 5.00	≥ 5.00	O=S(=O)(c1cc(Br)cc(Cl)c1O)n1c(-c2ccccc2)cc2cc(F)ccc21 [I-42]	–	–
4.70 to 6.30	≥ 5.00	≥ 5.00	N#Cc1ccc2c(c1)cc(-c1ccccc1)n2S(=O)(=O)c1cc(Br)cc(Cl)c1O [I-48]	–	–
4.70 to 6.30	≥ 5.00	≥ 5.00	O=S(=O)(c1cc(F)cc(F)c1O)n1c(-c2ccccc2)cc2cc(Cl)ccc21 [I-61]	–	–
4.70 to 6.30	≥ 5.00	≥ 5.00	N#Cc1ccc2c(c1)cc(-c1ccc(OC(F)(F)F)cc1)n2S(=O)(=O)c1cc(F)cc(F)c1O [I-81]	–	–
